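Dose response: 5 concentrations. Exposure: 48 h. Format: 96-well plates. Endpoint: linear interpolation; highest concentration if not reached. The concentration for 50% growth inhibition is given as GI50.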 Activity calls are given as the source filed them. No stated cut-off is given here; in the data, active = GI50 up to about 1.1 µM and inactive = higher.
Tests used:
Experiment in all cases: NCI anticancer screen, dose series, 48 h
[1] = system: MDA-MB-231
[2] = system: A498
[3] = system: ACHN
[4] = system: MCF7
[5] = system: SF-539
[6] = system: HOP-92
[7] = system: SR
[8] = system: LOX IMVI
[9] = system: MOLT-4
[10] = system: DU-145
[11] = system: SNB-19
[12] = system: SW-620
[13] = system: BT-549
[14] = system: CAKI-1
[15] = system: 786-0
[16] = system: HT-29
[17] = system: OVCAR-4
[18] = system: UACC-62
[19] = system: CCRF-CEM
[20] = system: SF-295

Measured: GI50

Cc1cccc(N2C(=O)C3ON(C(C(N)=O)c4ccccc4)C(c4c5ccccc5c(Cl)c5ccccc45)C3C2=O)c1C (configuration not stated)
inactive: [1] 9.42 µM | [2] 11.9 µM | [3] 9.16 µM | [4] 7.64 µM | [5] 7.67 µM | [6] 7.89 µM | [7] 1.69 µM | [8] 7.1 µM | [9] 1.89 µM | [10] 10.4 µM | [11] 8.85 µM | [12] 3.53 µM | [13] 9.98 µM | [14] 9.06 µM | [15] 9.62 µM | [16] 7.82 µM | [17] 9.57 µM | [18] 6.84 µM | [19] 2.55 µM | [20] 9.66 µM

COc1ccc(/C=C2\CCS(=O)(=O)c3ccccc3C2=O)cc1OC
inactive: [1] 30.8 µM | [2] 33.4 µM | [3] 27.5 µM | [4] 12.2 µM | [5] 25.6 µM | [6] 19.6 µM | [7] 43.5 µM | [8] 19.1 µM | [9] 46.2 µM | [10] 23.6 µM | [11] 42.8 µM | [12] 38 µM | [13] 16.6 µM | [14] 58.6 µM | [15] 28.1 µM | [16] 36.7 µM | [17] 17.9 µM | [18] 16.7 µM | [19] 28.9 µM | [20] 43.6 µM

N#CC(C(=O)/C(=N/Nc1nc(S)nn1N)C(C#N)c1ccccc1)c1ccccc1 (configuration not stated)
inactive: [1] > 100 µM | [2] > 100 µM | [3] > 100 µM | [4] > 100 µM | [5] > 100 µM | [6] > 100 µM | [7] > 100 µM | [8] > 100 µM | [10] > 100 µM | [11] > 100 µM | [12] > 100 µM | [13] > 100 µM | [14] > 100 µM | [15] > 100 µM | [16] > 100 µM | [17] > 100 µM | [18] > 100 µM | [19] > 100 µM | [20] > 100 µM

COc1ccc2cc(CNCCCCCCCCNCc3ccc4cc(OC)ccc4c3)ccc2c1
active: [7] 1.12 µM
inactive: [1] 13.7 µM | [2] 6.38 µM | [3] 5.94 µM | [4] 4.27 µM | [6] 5.32 µM | [8] 3.94 µM | [9] 2.77 µM | [10] 6.97 µM | [11] 4.1 µM | [12] 1.97 µM | [13] 6.67 µM | [14] 6.67 µM | [15] 5.36 µM | [16] 2 µM | [17] 6.34 µM | [18] 2.01 µM | [19] 2.54 µM | [20] 5.3 µM

COc1cc([C@@H]2C3C(=O)c4ccccc4C3[C@@H](c3cc(OC)c(OC)c(OC)c3)C23Cc2ccccc2C3=O)cc(OC)c1OC (some centres not stated)
inactive: [1] > 100 µM | [2] > 100 µM | [3] > 100 µM | [4] 15.4 µM | [5] > 100 µM | [6] 1.87 µM | [7] > 100 µM | [8] > 100 µM | [9] > 100 µM | [10] > 100 µM | [11] > 100 µM | [12] > 100 µM | [13] > 100 µM | [14] 2.75 µM | [15] > 100 µM | [16] > 100 µM | [17] > 100 µM | [19] > 100 µM | [20] > 100 µM

COCN1C(=O)[C@@H]2C[C@@H](O)CN2C(=O)c2ccccc21
inactive: [1] > 100 µM | [2] > 100 µM | [3] > 100 µM | [4] > 100 µM | [6] > 100 µM | [7] > 100 µM | [8] > 100 µM | [9] 61.7 µM | [10] > 100 µM | [11] > 100 µM | [12] > 100 µM | [13] > 100 µM | [14] > 100 µM | [15] > 100 µM | [16] > 100 µM | [17] > 100 µM | [18] > 100 µM | [19] > 100 µM | [20] > 100 µM

Nc1ccc(COC(O)CN2CCCCC2)cc1[N+](=O)[O-] (configuration not stated)
inactive: [1] > 100 µM | [2] > 100 µM | [3] > 100 µM | [4] > 100 µM | [5] > 100 µM | [6] > 100 µM | [7] > 100 µM | [9] > 100 µM | [10] > 100 µM | [11] > 100 µM | [12] > 100 µM | [13] > 100 µM | [14] > 100 µM | [15] > 100 µM | [16] > 100 µM | [17] > 100 µM | [18] > 100 µM | [19] > 100 µM | [20] > 100 µM

CCOC(=O)/C(C#N)=N\Nc1ccc(-n2c(C)nc3ccccc3c2=O)cc1
inactive: [1] > 100 µM | [2] > 100 µM | [3] > 100 µM | [4] 84.3 µM | [5] > 100 µM | [6] > 100 µM | [7] 39.4 µM | [8] 66.2 µM | [9] 23.7 µM | [10] 77.6 µM | [11] > 100 µM | [12] 75.9 µM | [13] 73.6 µM | [14] > 100 µM | [15] > 100 µM | [16] > 100 µM | [18] 70.3 µM | [19] > 100 µM | [20] 56.9 µM

C1=N\CCOCC/N=C/c2ccccc2OCc2cccc(n2)COc2ccccc2/1
active: [7] 0.977 µM
inactive: [1] 8.93 µM | [2] > 25 µM | [3] 9.23 µM | [4] 4.32 µM | [5] 3.2 µM | [6] 10.4 µM | [9] 4.91 µM | [10] 6.61 µM | [11] 9.51 µM | [12] 4.79 µM | [13] 6.76 µM | [15] 10 µM | [16] 5.22 µM | [17] 6.03 µM | [18] 2.27 µM | [19] 4.76 µM | [20] 4.02 µM

C=C(C)C12OC3(c4ccccc4)OC1C1C4OC4(CO)C(O)C4(O)C(=O)C(C)=CC4C1(O3)C(C)C2OC(=O)/C=C/C=C/c1ccccc1 (configuration not stated)
active: [1] < 0.0005 µM | [2] < 0.0005 µM | [3] < 0.0005 µM | [4] 0.222 µM | [5] 0.372 µM | [6] < 0.0005 µM | [7] 0.122 µM | [8] 0.0968 µM | [9] 0.113 µM | [10] 0.215 µM | [11] 0.713 µM | [13] 0.203 µM | [14] 0.504 µM | [15] 0.101 µM | [16] 0.0836 µM | [17] 0.173 µM | [18] 0.253 µM | [19] 0.128 µM | [20] < 0.0005 µM

O=C(O)c1ccc2c(c1)CC1(C2)Cc2cc3c(cc2C1=O)CCC3 (configuration not stated)
inactive: [1] > 100 µM | [2] 19.5 µM | [3] > 100 µM | [4] > 100 µM | [5] > 100 µM | [6] 69 µM | [7] > 100 µM | [8] > 100 µM | [9] > 100 µM | [10] > 100 µM | [11] > 100 µM | [12] > 100 µM | [13] > 100 µM | [15] > 100 µM | [16] > 100 µM | [17] > 100 µM | [18] > 100 µM | [19] > 100 µM | [20] 93.3 µM

O=C(O)C1=NN(c2ccc(S(=O)(=O)O)cc2)C2(C1)C(Cl)C(=O)N2c1nc2ccccc2s1 (configuration not stated)
inactive: [1] 19 µM | [2] 19.1 µM | [3] 17 µM | [4] 14.4 µM | [5] 4.4 µM | [6] 20.5 µM | [7] 7.82 µM | [8] 2.99 µM | [9] 15.3 µM | [10] 19.1 µM | [11] 21.3 µM | [12] 2.68 µM | [13] 17.4 µM | [14] 15.4 µM | [15] 16.1 µM | [16] 17.8 µM | [17] 16.4 µM | [18] 14.4 µM | [20] 15.6 µM

Cc1[nH]c(-c2ccccc2)c(O)c1C(=O)OC12CC3CC(CC(C3)C1)C2
inactive: [1] 18.5 µM | [2] 20.5 µM | [3] 16.1 µM | [4] 14.1 µM | [5] 11 µM | [6] 18.8 µM | [7] 12.6 µM | [9] 12.5 µM | [10] 15.6 µM | [11] 15 µM | [12] 16.2 µM | [13] 17.1 µM | [14] 20.1 µM | [15] 14 µM | [16] 3.99 µM | [17] 16.3 µM | [18] 17.3 µM | [19] 39 µM | [20] 2.93 µM

N#C/C(C(=O)CCl)=C1\Nc2ccccc2O1
inactive: [1] 2.89 µM | [2] 1.95 µM | [4] 2.56 µM | [5] 2.79 µM | [6] 3.88 µM | [7] 3.84 µM | [8] 1.65 µM | [9] 3.35 µM | [10] 10.2 µM | [11] 7.98 µM | [12] 4.33 µM | [13] 2.17 µM | [14] 3.65 µM | [15] 3.76 µM | [16] 4.13 µM | [17] 1.49 µM | [18] 2.35 µM | [19] 3.29 µM | [20] 2.62 µM

Reference: ChEMBL document CHEMBL1201862, “PubChem BioAssay data set” (2004)
